According to PMC4850295, “Using a Genetically Encoded Sensor to Identify Inhibitors of Toxoplasma gondii Ca^2+ Signaling” (The Journal of Biological Chemistry, 2016):
Several values for one entry are separate records, joined by “and”; a condition that tells them apart may be missing. Equal entries are not always repeated.

These molecules were tested on T1, GCaMP5-expressing T. gondii. Conditions: 100 uM zaprinast stimulation, 10 min pretreatment, mean of two replicates, 0.23 h, 10 µM.
T1 construct: whole extracellular parasites expressing GCaMP5 Ca2+ sensor
Design: species or system GCaMP5-expressing Toxoplasma gondii, extracellular; GCaMP5 fluorescence (cytosolic Ca2+) after 100 uM zaprinast in compound-pretreated extracellular parasites, background-subtracted, relative to zaprinast alone
Procedure, shortened: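 Extracellular GCaMP5-expressing parasites in Ringer's solution were pretreated with compounds (single 10 μM dose, two biological replicates) for 10 min, then stimulated with 100 μM zaprinast at 37 °C for 4 min. Fluorescence read at 485/525 nm, basal subtracted, expressed as fold change relative to zaprinast-only parasites.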

For `NS(=O)(=O)c1cccc(Nc2cc(-c3ccc(F)cc3)n[nH]2)c1` [GW824645A], the “fold change in fluorescence relative to zaprinast alone” value was 1.167 and 1.492.

Same assay, conditions: 100 uM zaprinast stimulation; 10 min pretreatment; mean of two replicates; 0.23 h

In order of falling “fold change in fluorescence relative to zaprinast alone” value:
1. COc1ccc(NC(=O)c2ccoc2)cc1-c1ccc(C(=O)NCC2CC2)cc1 [GW810437X]  1.267
2. Cc1ccc(C(=O)NC2CC2)cc1-c1ccc2[nH]ncc2c1 [GW820759X]  1.265
3. Cc1ccc2c(-c3ccnc(Nc4ccc(C(F)(F)F)cc4)n3)cnn2n1 [GW819776X]  1.244
4. CN(c1ccc2c(c1)nc(NCc1ccccc1)n2C)c1ccnc(Nc2ccc(CS(C)(=O)=O)cc2)n1 [GW811603A]  1.239
5. COc1cccc(-n2nc(C)c3c(N/N=C(\C)c4ccncc4)ncnc32)c1 [GW809885X]  1.233
6. O=C(NCC1CC1)c1ccc(-c2cc(C(=O)NC3CC3)ccc2F)cc1 [GW810445X]  1.232
7. COc1cccc(-n2ncc3c(N/N=C/c4cccc(F)c4)ncnc32)c1 [GW817394X]  1.201
8. Cc1ccc(-c2cc3c(NC(=O)C4CC4)ncnc3o2)cc1 [GW819230X]  1.19
9. COc1cccc(-n2ncc3c(N/N=C/c4ccc(F)cc4)ncnc32)c1 [GW817396X]  1.185
10. O=C(c1ccc(-c2cc(-c3cn[nH]c3-c3ccccn3)ccn2)cc1)N1CCOCC1 [GW812171X]  1.17
11. CN(c1ccc2c(c1)nc(NCc1ccc(F)cc1)n2C)c1ccnc(Nc2ccc(CS(C)(=O)=O)cc2)n1 [GW813244A]  1.154
12. COc1cccc(-n2cnc3c(N/N=C/c4ccncc4)ncnc32)c1 [GW813360X]  1.13
13. CN(C(=O)c1ccc(-c2cc(-c3cn[nH]c3-c3ccccn3)ccn2)cc1)C1CCOCC1 [GW810083X]  1.114
14. CN(c1ccc(NC(=O)Nc2c(Cl)cccc2Cl)cc1)c1ccnc(Nc2cccc(CS(C)(=O)=O)c2)n1 [GW809897X]  1.103
15. CCOc1ccc2c(-c3ccnc(Nc4cccc(C(F)(F)F)c4)n3)cnn2n1 [GW811761X]  1.047
16. O=C(NCc1cccs1)c1cc(C(=O)c2c(Cl)cccc2Cl)c[nH]1 [GW823670X]  1.033
17. COc1ccc(-c2nn3ncccc3c2-c2ccnc(Nc3ccc4c(c3)OCCO4)n2)cc1 [GW827106X]  0.9888
18. FC(F)(F)c1cc(Br)cc(Nc2nccc(-c3cnn4ncccc34)n2)c1 [GW810578X]  0.9472
19. CCOc1ccc2c(-c3ccnc(Nc4cc(OC)cc(C(F)(F)F)c4)n3)cnn2n1 [GW807982X]  0.9255
20. COc1ccc(-c2nn3ncccc3c2-c2ccnc(Nc3cccc(C(F)(F)F)c3)n2)cc1 [GW827105X]  0.7957
21. c1ccc(-c2ccc3c(-c4ccnc(Nc5ccc6c(c5)OCCO6)n4)cnn3n2)cc1 [GW818941X]  0.7769
22. COc1cccc(-n2ncc3c(N/N=C/c4ccc(S(C)(=O)=O)cc4)ncnc32)c1 [GW811168X]  0.6755
23. COc1cccc(-c2c[nH]c3c(N/N=C/c4ccncc4)ncnc23)c1 [GW814408X]  0.6391
24. CCCNC(=O)Nc1ccc(N(C)c2ccnc(NC3CC3)n2)cc1 [GW818933X]  0.4908
25. CN(c1ccc(NC(=O)Nc2cc(C(F)(F)F)ccc2F)cc1)c1ccnc(Nc2ccc(S(N)(=O)=O)cc2)n1 [GW809893X]  0.2843
26. COc1ccc2c(-c3ccnc(Nc4cccc(OC(F)(F)F)c4)n3)cnn2n1 [GW810372X]  0.1756
27. FC(F)(F)c1cccc(Nc2nccc(-c3cnn4nc(-c5ccccc5)ccc34)n2)c1 [GW819077X]  0.1467
